# Entries after “also recorded” stand apart in the source; their conditions may differ.
# Tested on: patients with advanced solid tumors
# Assay: Phase I safety and tolerability
# Type: in vivo, human
# [1] = Cohort 1 (N=2), 20 mg BID 17 days + carboplatin
# [2] = Cohort 2 (N=7), 20 mg BID 10 days + carboplatin
# [3] = Cohort 3 (N=3), 40 mg BID 10 days + carboplatin
compound,measurement,setting,value
C[C@@H]1COCCN1c1cc(C2([S@](C)(=N)=O)CC2)nc(-c2cc[nH]c3nccc2-3)n1 [ceralasertib],"TEAE Abdominal pain, Grade 1–2",[1],"0 patients, n (%)"
same,"TEAE Abdominal pain, Grade ≥3",[1],"1 (50) patients, n (%)"
same,"TEAE Alanine aminotransferase increased, Grade 1–2",[1],"0 patients, n (%)"
same,"TEAE Alanine aminotransferase increased, Grade ≥3",[1],"0 patients, n (%)"
same,"TEAE Anemia, Grade 1–2",[1],"1 (50) patients, n (%)"
same,"TEAE Anemia, Grade ≥3",[1],"0 patients, n (%)"
same,"TEAE Any AE, Grade 1–2",[1],"1 (50) patients, n (%)"
same,"TEAE Any AE, Grade ≥3",[1],"1 (50) patients, n (%)"
same,"TEAE Arthralgia, Grade 1–2",[1],"0 patients, n (%)"
same,"TEAE Arthralgia, Grade ≥3",[1],"0 patients, n (%)"
same,"TEAE Aspartate aminotransferase increased, Grade 1–2",[1],"0 patients, n (%)"
same,"TEAE Aspartate aminotransferase increased, Grade ≥3",[1],"0 patients, n (%)"
same,"TEAE Constipation, Grade 1–2",[1],"1 (50) patients, n (%)"
same,"TEAE Constipation, Grade ≥3",[1],"0 patients, n (%)"
same,"TEAE Contusion, Grade 1–2",[1],"0 patients, n (%)"
same,"TEAE Contusion, Grade ≥3",[1],"0 patients, n (%)"
same,"TEAE Cough, Grade 1–2",[1],"0 patients, n (%)"
same,"TEAE Cough, Grade ≥3",[1],"0 patients, n (%)"
same,"TEAE Decreased appetite, Grade 1–2",[1],"0 patients, n (%)"
same,"TEAE Decreased appetite, Grade ≥3",[1],"0 patients, n (%)"
same,"TEAE Diarrhea, Grade 1–2",[1],"1 (50) patients, n (%)"
same,"TEAE Diarrhea, Grade ≥3",[1],"0 patients, n (%)"
same,"TEAE Dizziness, Grade 1–2",[1],"0 patients, n (%)"
same,"TEAE Dizziness, Grade ≥3",[1],"0 patients, n (%)"
same,"TEAE Dyspnea, Grade 1–2",[1],"1 (50) patients, n (%)"
same,"TEAE Dyspnea, Grade ≥3",[1],"0 patients, n (%)"
same,"TEAE Fatigue, Grade 1–2",[1],"2 (100) patients, n (%)"
same,"TEAE Fatigue, Grade ≥3",[1],"0 patients, n (%)"
same,"TEAE Hypocalcemia, Grade 1–2",[1],"0 patients, n (%)"
same,"TEAE Hypocalcemia, Grade ≥3",[1],"0 patients, n (%)"
same,"TEAE Insomnia, Grade 1–2",[1],"0 patients, n (%)"
same,"TEAE Insomnia, Grade ≥3",[1],"0 patients, n (%)"
same,"TEAE Lower respiratory tract infection, Grade 1–2",[1],"0 patients, n (%)"
same,"TEAE Lower respiratory tract infection, Grade ≥3",[1],"0 patients, n (%)"
same,"TEAE Nausea, Grade 1–2",[1],"1 (50) patients, n (%)"
same,"TEAE Nausea, Grade ≥3",[1],"0 patients, n (%)"
same,"TEAE Neutropenia, Grade 1–2",[1],"0 patients, n (%)"
same,"TEAE Neutropenia, Grade ≥3",[1],"1 (50) patients, n (%)"
same,"TEAE Neutrophil count decreased, Grade 1–2",[1],"0 patients, n (%)"
same,"TEAE Neutrophil count decreased, Grade ≥3",[1],"0 patients, n (%)"
same,"TEAE Platelet count decreased, Grade 1–2",[1],"0 patients, n (%)"
same,"TEAE Platelet count decreased, Grade ≥3",[1],"0 patients, n (%)"
same,"TEAE Pyrexia, Grade 1–2",[1],"1 (50) patients, n (%)"
same,"TEAE Pyrexia, Grade ≥3",[1],"0 patients, n (%)"
same,"TEAE Thrombocytopenia, Grade 1–2",[1],"1 (50) patients, n (%)"
same,"TEAE Thrombocytopenia, Grade ≥3",[1],"1 (50) patients, n (%)"
same,"TEAE Upper respiratory tract infection, Grade 1–2",[1],"0 patients, n (%)"
same,"TEAE Upper respiratory tract infection, Grade ≥3",[1],"0 patients, n (%)"
same,"TEAE Vomiting, Grade 1–2",[1],"1 (50) patients, n (%)"
same,"TEAE Vomiting, Grade ≥3",[1],"0 patients, n (%)"
same,"TEAE White blood cell count decreased, Grade 1–2",[1],"0 patients, n (%)"
same,"TEAE White blood cell count decreased, Grade ≥3",[1],"1 (50) patients, n (%)"
same,SRC decision (tolerability),"Cohort 1: 20 mg BID days 4–20 (17 days) + carboplatin AUC5, 2 patients",declared intolerable; also recorded: Not tolerated
same,"TEAE Abdominal pain, Grade 1–2",[2],"0 patients, n (%)"
same,"TEAE Abdominal pain, Grade ≥3",[2],"0 patients, n (%)"
same,"TEAE Alanine aminotransferase increased, Grade 1–2",[2],"1 (14) patients, n (%)"
same,"TEAE Alanine aminotransferase increased, Grade ≥3",[2],"0 patients, n (%)"
same,"TEAE Anemia, Grade 1–2",[2],"2 (29) patients, n (%)"
same,"TEAE Anemia, Grade ≥3",[2],"2 (29) patients, n (%)"
same,"TEAE Any AE, Grade 1–2",[2],"2 (29) patients, n (%)"
same,"TEAE Any AE, Grade ≥3",[2],"5 (71) patients, n (%)"
same,"TEAE Arthralgia, Grade 1–2",[2],"1 (14) patients, n (%)"
same,"TEAE Arthralgia, Grade ≥3",[2],"0 patients, n (%)"
same,"TEAE Aspartate aminotransferase increased, Grade 1–2",[2],"1 (14) patients, n (%)"
same,"TEAE Aspartate aminotransferase increased, Grade ≥3",[2],"0 patients, n (%)"
same,"TEAE Constipation, Grade 1–2",[2],"2 (29) patients, n (%)"
same,"TEAE Constipation, Grade ≥3",[2],"0 patients, n (%)"
same,"TEAE Contusion, Grade 1–2",[2],"1 (14) patients, n (%)"
same,"TEAE Contusion, Grade ≥3",[2],"0 patients, n (%)"
same,"TEAE Cough, Grade 1–2",[2],"5 (71) patients, n (%)"
same,"TEAE Cough, Grade ≥3",[2],"0 patients, n (%)"
same,"TEAE Decreased appetite, Grade 1–2",[2],"1 (14) patients, n (%)"
same,"TEAE Decreased appetite, Grade ≥3",[2],"0 patients, n (%)"
same,"TEAE Diarrhea, Grade 1–2",[2],"2 (29) patients, n (%)"
same,"TEAE Diarrhea, Grade ≥3",[2],"0 patients, n (%)"
same,"TEAE Dizziness, Grade 1–2",[2],"0 patients, n (%)"
same,"TEAE Dizziness, Grade ≥3",[2],"0 patients, n (%)"
same,"TEAE Dyspnea, Grade 1–2",[2],"3 (43) patients, n (%)"
same,"TEAE Dyspnea, Grade ≥3",[2],"0 patients, n (%)"
same,"TEAE Fatigue, Grade 1–2",[2],"4 (58) patients, n (%)"
same,"TEAE Fatigue, Grade ≥3",[2],"1 (14) patients, n (%)"
same,"TEAE Hypocalcemia, Grade 1–2",[2],"0 patients, n (%)"
same,"TEAE Hypocalcemia, Grade ≥3",[2],"0 patients, n (%)"
same,"TEAE Insomnia, Grade 1–2",[2],"2 (29) patients, n (%)"
same,"TEAE Insomnia, Grade ≥3",[2],"0 patients, n (%)"
same,"TEAE Lower respiratory tract infection, Grade 1–2",[2],"2 (29) patients, n (%)"
same,"TEAE Lower respiratory tract infection, Grade ≥3",[2],"0 patients, n (%)"
same,"TEAE Nausea, Grade 1–2",[2],"2 (29) patients, n (%)"
same,"TEAE Nausea, Grade ≥3",[2],"0 patients, n (%)"
same,"TEAE Neutropenia, Grade 1–2",[2],"1 (14) patients, n (%)"
same,"TEAE Neutropenia, Grade ≥3",[2],"0 patients, n (%)"
same,"TEAE Neutrophil count decreased, Grade 1–2",[2],"0 patients, n (%)"
same,"TEAE Neutrophil count decreased, Grade ≥3",[2],"0 patients, n (%)"
same,"TEAE Platelet count decreased, Grade 1–2",[2],"0 patients, n (%)"
same,"TEAE Platelet count decreased, Grade ≥3",[2],"1 (14) patients, n (%)"
same,"TEAE Pyrexia, Grade 1–2",[2],"3 (43) patients, n (%)"
same,"TEAE Pyrexia, Grade ≥3",[2],"0 patients, n (%)"
same,"TEAE Thrombocytopenia, Grade 1–2",[2],"4 (58) patients, n (%)"
same,"TEAE Thrombocytopenia, Grade ≥3",[2],"1 (14) patients, n (%)"
same,"TEAE Upper respiratory tract infection, Grade 1–2",[2],"3 (43) patients, n (%)"
same,"TEAE Upper respiratory tract infection, Grade ≥3",[2],"0 patients, n (%)"
same,"TEAE Vomiting, Grade 1–2",[2],"2 (29) patients, n (%)"
same,"TEAE Vomiting, Grade ≥3",[2],"0 patients, n (%)"
same,"TEAE White blood cell count decreased, Grade 1–2",[2],"0 patients, n (%)"
same,"TEAE White blood cell count decreased, Grade ≥3",[2],"0 patients, n (%)"
same,"TEAE Abdominal pain, Grade 1–2",[3],"0 patients, n (%)"
same,"TEAE Abdominal pain, Grade ≥3",[3],"0 patients, n (%)"
same,"TEAE Alanine aminotransferase increased, Grade 1–2",[3],"0 patients, n (%)"
same,"TEAE Alanine aminotransferase increased, Grade ≥3",[3],"0 patients, n (%)"
same,"TEAE Anemia, Grade 1–2",[3],"1 (33) patients, n (%)"
